Test results as given in US20260317296A1, “HETEROCYCLIC COMPOUNDS FOR IMAGING AGGREGATED TAU IN TAUOPATHIES” (University of Pittsburgh - Of the Commonwealth System of …, priority 2023, published 2026).
Like-named read-outs stand apart in the source and are kept apart here. Values belong to the compound of their own block, whether it stands above or below them.

Tests used:
[1] = molecular target: T1, aggregated 4R-tau in PSP tissue (Homo sapiens, UniProt P10636); experiment: In vitro competition (Ki) assay, PSP brain tissue homogenate; type: binding
T1 construct: autopsy-confirmed postmortem AD, PSP, and CBD human brain tissues; tissue UCSF Neurodegenerative Disease Brain Bank; host or cells: post-mortem human PSP brain homogenate

[2] = molecular target: T2, aggregated 4R-tau in AD tissue (Homo sapiens, UniProt P10636); experiment: In vitro competition (Ki) assay, AD brain tissue homogenate; type: binding
T2 construct: autopsy-confirmed postmortem AD, PSP, and CBD human brain tissues; tissue UCSF Neurodegenerative Disease Brain Bank; host or cells: post-mortem human AD brain homogenate

[3] = molecular target: T3, PiB binding site on amyloid-beta (Homo sapiens, UniProt P05067); experiment: Competition against [^3H]PiB in post-mortem human AD brain tissue
T3 construct: from tissue; host or cells: post-mortem human AD brain

alpha-synuclein = molecular target: T4, alpha-synuclein (Homo sapiens, UniProt P37840); experiment: Homologous binding assay, Parkinson's Disease (PD) brain tissue
T4 construct: Parkinson's Disease (PD) post-mortem brain tissue; from tissue; host or cells: post-mortem Parkinson's Disease brain

[4] = molecular target: T5, aggregated 4R-tau in PSP brain (Homo sapiens, UniProt P10636); experiment: Binding affinity (Kd) assay, PSP brain homogenate; conditions: for Kd: PSP brain, Table 1
T5 construct: aggregated 4R-tau in human brain tissue samples from AD, PSP, and CBD patients; from tissue; host or cells: homogenized cortex of human PSP brain

[5] = molecular target: T6, aggregated 4R-tau in AD brain (Homo sapiens, UniProt P10636); experiment: Binding affinity (Kd) assay, AD brain homogenate; conditions: for Kd: AD brain, Table 1
T6 construct: aggregated 4R-tau in human brain tissue samples from AD, PSP, and CBD patients; from tissue; host or cells: homogenized cortex of human AD brain

[6] = molecular target: T7, aggregated 4R-tau in CBD brain (Homo sapiens, UniProt P10636); experiment: Binding affinity (Kd) assay, CBD brain homogenate; conditions: for Kd: CBD brain, Table 1
T7 construct: aggregated 4R-tau in human brain tissue samples from AD, PSP, and CBD patients; from tissue; host or cells: homogenized cortex of human CBD brain

CBD brain tissue = experiment: Autoradiography, post-mortem CBD brain tissue; type: binding, human; conditions: medial frontal cortex, 5 nM, self-blocking with 1 mM unlabeled 69
AD brain tissue = experiment: Autoradiography, post-mortem AD brain tissue; type: binding, human; conditions: medial frontal cortex, 5 nM, self-blocking with 1 mM unlabeled 69
P301L mouse brain tissue = molecular target: T8, P301L mouse brain tissue (Homo sapiens, UniProt P10636, P618L); experiment: Homologous binding assay, P301L mouse brain tissue
T8 construct: from tissue; host or cells: brain tissue of P301L mouse

[7] = test system: post-mortem human brain control tissue; experiment: Autoradiography, post-mortem control brain tissue; type: binding; conditions: cingulate gyrus, 5 nM, self-blocking with 1 mM unlabeled 69
[8] = molecular target: T9, Pick's Disease brain tissue (Homo sapiens, UniProt P10636); experiment: Homologous binding assay, Pick's Disease brain tissue; conditions: post-mortem human Pick's Disease brain tissue
T9 construct: post-mortem human AD, PSP, CBD, and Pick's Disease brain tissue; from tissue; host or cells: post-mortem human Pick's Disease brain

PSP brain tissue = experiment: Autoradiography, post-mortem PSP brain tissue; type: binding, human; conditions: medial frontal cortex, 5 nM, self-blocking with 1 mM unlabeled 69
log D of radiotracer = type: physicochemical; conditions: n=4
[9] = vs [^3H]1, n = 1, Ki=IC50/2, read-out: Inhibition Constant (Ki) versus [^3H]1
[10] = post-mortem human AD brain tissue
[11] = vs [^3H]2, n = 1, Ki=IC50/2, read-out: Inhibition Constant (Ki) versus [^3H]2

T5 sequence (P10636 1-441 isoform P10636-8): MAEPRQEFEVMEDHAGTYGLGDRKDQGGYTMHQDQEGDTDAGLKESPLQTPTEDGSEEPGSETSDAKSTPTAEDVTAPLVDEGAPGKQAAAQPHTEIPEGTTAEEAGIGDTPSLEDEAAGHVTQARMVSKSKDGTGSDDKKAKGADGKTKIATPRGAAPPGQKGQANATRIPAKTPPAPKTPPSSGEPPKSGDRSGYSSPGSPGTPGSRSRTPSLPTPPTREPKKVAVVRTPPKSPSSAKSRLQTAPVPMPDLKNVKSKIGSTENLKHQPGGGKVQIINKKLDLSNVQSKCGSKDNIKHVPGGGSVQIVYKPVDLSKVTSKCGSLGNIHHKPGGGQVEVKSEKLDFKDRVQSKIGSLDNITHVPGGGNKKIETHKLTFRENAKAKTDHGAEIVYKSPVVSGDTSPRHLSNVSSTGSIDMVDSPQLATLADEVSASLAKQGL
T2 sequence (P10636 1-441 isoform P10636-8): as above
T2 sequence (P10636 1-410 isoform P10636-5): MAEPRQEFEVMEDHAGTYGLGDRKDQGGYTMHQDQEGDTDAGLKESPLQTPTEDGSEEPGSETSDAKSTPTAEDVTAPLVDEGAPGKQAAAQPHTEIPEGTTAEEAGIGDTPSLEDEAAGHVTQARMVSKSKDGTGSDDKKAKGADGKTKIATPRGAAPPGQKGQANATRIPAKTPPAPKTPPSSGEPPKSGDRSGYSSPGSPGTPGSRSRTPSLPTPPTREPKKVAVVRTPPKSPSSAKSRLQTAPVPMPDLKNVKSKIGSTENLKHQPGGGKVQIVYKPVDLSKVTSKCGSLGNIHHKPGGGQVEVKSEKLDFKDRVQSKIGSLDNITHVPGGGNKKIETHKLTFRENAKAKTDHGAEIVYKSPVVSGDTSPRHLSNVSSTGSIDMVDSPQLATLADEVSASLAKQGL
T6 sequence (P10636 1-441 isoform P10636-8): as the sequence (P10636 1-441 isoform P10636-8) above
T6 sequence (P10636 1-410 isoform P10636-5): as the sequence (P10636 1-410 isoform P10636-5) above
T7 sequence (P10636 1-441 isoform P10636-8): as the sequence (P10636 1-441 isoform P10636-8) above
T1 sequence (P10636 1-441 isoform P10636-8): as above
T3 sequence (P05067 672-713 limits assumed): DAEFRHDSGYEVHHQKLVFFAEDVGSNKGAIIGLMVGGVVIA
T8 sequence (P10636 1-441 isoform P10636-8 P301L): as the sequence (P10636 1-441 isoform P10636-8) above, with P301L counted along it
T9 sequence (P10636 1-410 isoform P10636-5): as the sequence (P10636 1-410 isoform P10636-5) above

SMILES: Fc1ccc2cc(-c3cnc(N4CCC(F)(F)CC4)nc3)[nH]c2c1 [Compound 17, 2-(2-(4,4-Difluoropiperidin-1-yl)pyrimidin-5-yl)-6-fluoro-1H-indole]
Ki [1, 9]: 23 nM
Ki [2, 9]: 37 nM

SMILES: OC1CCN(c2ncc(-c3cc4cc(F)ccc4o3)cn2)CC1 [Compound 43, 1-(5-(5-Fluorobenzofuran-2-yl)pyrimidin-2-yl)piperidin-4-ol]
Ki [1, 9]: 91 nM
Ki [2, 9]: 45 nM

SMILES: OC1CCN(c2ncc(-c3cc4ccccc4[nH]3)cn2)CC1 [Compound 46, 1-(5-(1H-Indol-2-yl)pyrimidin-2-yl)piperidin-4-ol]
Ki [1, 9]: 24 nM
Ki [2, 9]: 11 nM

SMILES: OC1CCN(c2ncc(-c3cc4cc(F)ccc4[nH]3)cn2)CC1 [Compound 47, 1-(5-(5-Fluoro-1H-indol-2-yl)pyrimidin-2-yl)piperidin-4-ol]
Ki [1, 9]: 20 nM
Ki [2, 9]: 21 nM

SMILES: Cn1c(-c2cnc(N3CCOCC3)nc2)cc2ccc(F)cc21 [Compound 103, 4-(5-(6-Fluoro-1-methyl-1H-indol-2-yl)pyrimidin-2-yl)morpholine]
Ki [1, 9]: 32 nM
Ki [2, 9]: 22 nM

SMILES: OC1CCN(c2ncc(-c3cc4ccc(F)cc4[nH]3)cn2)CC1 [[^3H]1]
Kd [4]: 5.1 ± 1.2 nM
Kd [5]: 4 ± 3.1 nM
Kd [6]: 4.1 nM

More lines, main results first:

competition against [^3H]PiB (in words) [3, 10]: does not compete well
SMILES: Fc1nc(N2CCOCC2)ccc1-c1cc2ccccc2[nH]1 [Compound 69, 4-(6-Fluoro-5-(1H-indol-2-yl)pyridin-2-yl)morpholine]
binding to the PiB binding site on amyloid-beta (in words) ([3]; concluded from competition against [^3H]PiB): does bind to the PiB binding site on amyloid-beta
binding to alpha-synuclein (in words) (alpha-synuclein; concluded from PD brain tissue): does not bind strongly to alpha-synuclein

Ki [1, 11]: 12 nM
Ki [2, 11]: 11 nM
SMILES: Fc1ccc2cc(-c3cnc(N4CCOCC4)cc3F)[nH]c2c1 [Compound 82, 4-(4-Fluoro-5-(6-fluoro-1H-indol-2-yl)pyridin-2-yl)morpholine]

Ki [1, 11]: 20 nM
Ki [2, 11]: 17 nM
SMILES: Fc1ccc2cc(-c3ncc(N4CCOCC4)cc3F)[nH]c2c1 [Compound 98, 4-(5-Fluoro-6-(6-fluoro-1H-indol-2-yl)pyridin-3-yl)morpholine]

Kd [4]: 1.6 ± 0.2 nM
Kd [5]: 1.2 ± 0.5 nM
Kd [6]: 1.7 ± 0.3 nM
SMILES: Fc1ccc2cc(-c3cnc(N4CCOCC4)nc3)[nH]c2c1 [[^3H]2]

binding affinity (in words) ([4]; post-mortem human PSP brain tissue): high affinity
specific binding by autoradiography (CBD brain tissue): Specific binding
specific binding by autoradiography (AD brain tissue): Specific binding
binding affinity (in words) (P301L mouse brain tissue): high affinity
binding affinity (in words) [5, 10]: high affinity
Kd (alpha-synuclein; PD tissue, Table 7 (n = 4)): 110 ± 54 nM
binding affinity (in words) (alpha-synuclein; Parkinson's Disease (PD) post-mortem brain tissue): low affinity
specific binding by autoradiography [7]: Little to no specific binding
binding affinity (in words) ([6]; post-mortem human CBD brain tissue): high affinity
binding affinity (in words) [8]: high affinity
specific binding by autoradiography (PSP brain tissue): Specific binding
SMILES: Fc1nc(N2CCOCC2)ccc1-c1cc2ccccc2[nH]1 [[^3H]69]

logD (log D of radiotracer): 1.96 ± 10
SMILES: [18F]c1nc(N2CCOCC2)ccc1-c1cc2ccccc2[nH]1 [[^18F]69, 4-(6-[^18F]Fluoro-5-(1H-indol-2-yl)pyridin-2-yl)morpholine]
